Laboratory results reported in patent US12031897B2, “Target-locking single-molecule nanoscopy” (Memorial Sloan Kettering Cancer Center, priority 2019, dated 2024).
Several values for one entry are separate records, joined by “and”; a condition that tells them apart may be missing. Identical values can stand only once.

Legend:
[1] = test system: Sox2 foci at the Pou5f1 locus; assay: Sox2 cluster signal at Pou5f1 upon inhibition (live-cell confocal/STED scans); format: cell-based, mouse; settings: Pou5f1
Excerpt: Contrary to Brd4, Med22 and Cdk9, Sox2 clustering persists through transcription inhibition by either JQ1 or FVP (FIG. 8D). The differential sensitivities between factors and modes of transcription inhibition unveil a hierarchy of molecular transactions that control Pou5f1 transcription: Sox2 binding occurs upstream of Cdk9/Med22/Brd4 recruitment and accumulation of all of 4 regulatory factors occurs upstream of Pol II release into productive elongation. […] For real-time confocal and STED imaging, example implementations may program the wave generator to scan 2 μm×2 μm or 1 μm×1 μm xy areas in 0.8 sec or 0.2 sec respectively. 3D scanning was performed (via, e.g., detection system 150) by acquiring 5 xy scans while moving the stage by 0.5 μm in z between scans. TTL pulses corresponding to single-photon events from the APDs, together with the trigger pulses from the wave generator were detected using a field-programmable gate array (FPGA) data acquisition system (National Instruments, PCIe-7852R). Before imaging, cells were seeded onto 8-chamber coverglass (LabTek, 155411) coated with 5 μg/ml laminin (BioLamina LN511), in -2i media (OMG) or +2i media (NMG) and appropriate drugs. For SiR staining, cells were labeled with media containing 0.3 μM SiR-BG for 10 mins, at 37° C., followed by three washes with new media. Targeted integration of SNAP-tag in the endogenous Sox2, Cdk9, Brd4 and Med22 genes. To generate OMG or NMG SNAP-Sox2 targeted cells, OMG-1 or NMG mESCs (1×106) were transfected with 10 μg SNAP-Sox2 donor vector and 0.6 μg […] vector. 10 days after transfection, the cells were trypsinized, labeled with 0.3 μM SiR-BG for 10 mins, rinsed three times with new media, followed by immediate fluorescence-activated cell sorting (FACS). All the SiR-positive cells were collected, expanded for 2 weeks, trypsinized, labeled with SiR-BG and sorted again. Almost 100% SNAP positive pools were obtained from the second round of sorting and individual clones were picked and expanded. Homozygous clones (dubbed “OMG SNAP-Sox2 clone 8” and NMG SNAP-Sox2 clone 3'' respectively) with both Sox2 alleles correctly targeted with SNAP-tag integrations and that show SiR nuclear staining were selected for all further experiments.

[2] = test system: H3K27ac at the Pou5f1 locus; assay: ChIP-qPCR analysis of H3K27ac after A-485 treatment; format: cell-based, mouse; settings: for H3K27ac characteristic decay time: 1 μM A-485
Procedure: ChIP-qPCR analysis of H3K27ac after A-485 treatment. For H3K27ac and H3 ChIP-qPCR experiments, confluent 10 cm dishes (˜3×10^6 OMG SNAP-Sox2 cells) were treated with 1 μM A-485 (Structural Genomics Consortium) or 0.1% v/v DMSO for the indicated times. Fixation, cell lysis, sonicated chromatin preparation, immunoprecipitation and qPCR analysis were performed as described for OMG SNAP-Rpb1 cells in the previous section, with the exception that 5 μg H3K27ac antibody (Active Motif 39685) or 5 μg H3 antibody (Active Motif 39763) were used for each IP respectively.

[3] = molecular target: T1, Brd4 foci at the Pou5f1 locus (Mus musculus, UniProt Q9ESU6); assay: Brd4 cluster signal at Pou5f1 upon inhibition (live-cell confocal/STED scans); format: cell-based; settings: Pou5f1
T1 construct: integrating a SNAP-tag at the N-terminus of the endogenous Brd4; endogenous in cells; host or cells: mouse ESCs OMG-1, homozygous SNAP-Brd4 knock-in clone 9 (printed as 'OMG SNAP-Cdk9 clone 9')
Procedure: For real-time confocal and STED imaging, example implementations may program the wave generator to scan 2 μm×2 μm or 1 μm×1 μm xy areas in 0.8 sec or 0.2 sec respectively. 3D scanning was performed (via, e.g., detection system 150) by acquiring 5 xy scans while moving the stage by 0.5 μm in z between scans. TTL pulses corresponding to single-photon events from the APDs, together with the trigger pulses from the wave generator were detected using a field-programmable gate array (FPGA) data acquisition system (National Instruments, PCIe-7852R).
(§1) Before imaging, cells were seeded onto 8-chamber coverglass (LabTek, 155411) coated with 5 μg/ml laminin (BioLamina LN511), in −2i media (OMG) or +2i media (NMG) and appropriate drugs. For SiR staining, cells were labeled with media containing 0.3 μM SiR-BG for 10 mins, at 37° C., followed by three washes with new media.
To generate OMG or NMG SNAP-Brd4 targeted cells, OMG-1 or NMG mESCs (1×106) were transfected with 10 μg SNAP-Brd4 donor vector and 0.6 μg espCas9-gRNA-Brd4 vector. 10 days after transfection, the cells were trypsinized, labeled with SiR-BG and subjected to FACS, generating a first-round SiR-positive pool. This pool was then expanded, stained with SiR-BG and subjected to second FACS round and individual clones were picked and expanded.

[4] = test system: Pou5f1 transcription site (MCP-mNeonGreen nascent RNA); assay: MCP-mNeonGreen nascent transcription at the endogenous Pou5f1 locus in mESCs (live-cell imaging); format: cell-based, mouse
Procedure: All the mESCs were cultured and maintained in +2i media with appropriate selection drugs on 0.1% gelatin-coated dishes, at 37° C. in a humidified 5% CO2 incubator. +2i media contain D-MEM (Thermo Fisher Scientific 10313021), 15% fetal bovine serum (Gemini Bio 100-500), 0.1 mM β-mercaptoethanol (Thermo Fisher Scientific 21985023), 2 mM L-alanyl-L-glutamine (Thermo Fisher Scientific 35050079), 1×MEM nonessential amino acids (Thermo Fisher Scientific 11140076), 1000 U/mL LIF (Millipore ESG1107), […] (Millipore 361559) and 1 μM PD0325901 (Axon Medichem 1408). OMG and NMG SNAP-Rpb1 cells were cultured with +2i media plus 3 μg/ml α-amanitin.
as §1
Wide-Field Cell Imaging Experiments. Live cell imaging experiments (tdPCP-EGFP and MCP-mNeonGreen tracking). For time-lapse imaging, a z-stack of 11 frames at 1 frame/second was acquired, by stepping the sample along the z-axis using the nanopositioning stage (250 nm steps). The CCD data were analyzed using IDL 6.4 (ITTVIS). Maximum projection images were calculated for each stack, and the resulting 11 sec/frame movie was used to track the intensities of individual tdPCP-EGFP-tagged transcription sites. A particle tracking routine (Crocker and Grier, 1996) was used for finding the positions of the transcription site in each frame and linking them into a 2D trajectory. The intensity trace of tdPCP-EGFP at the transcription site was corrected for photo-bleaching using the time trace of tdPCP-EGFP in a nearby nuclear region. The auto-correlation function was calculated (for the tdPCP-EGFP fluctuation analysis), or the data were imported in Origin 8.5.0 (OriginLab) and the trace fitted to a single-exponential decay (for the transcription inhibition experiments).

Q: Which results are given for `CNC(=O)Nc1ccc2c(c1)CC[C@@]21OC(=O)N(CC(=O)N(Cc2ccc(F)cc2)[C@@H](C)C(F)(F)F)C1=O` [A-485]?
A: Sox2 cluster size characteristic decay time ([1]; upon A-485 inhibition): 12.5 min; Sox2 signal exponential fit τ ([1]; upon adding 1 μM A-485 (FIG. 8I legend)): 12.5 ± 8.6 s; H3K27ac characteristic decay time ([2]; primer pair 4): 7 ± 2 min; H3K27ac characteristic decay time ([2]; primer pair 5): 7 ± 4 min; H3K27ac characteristic decay time ([2]; primer pair 6): 5 ± 1 min; H3K27ac characteristic decay time ([2]; primer pair 7): 13 ± 4 min; H3K27ac loss kinetics ([2]; upon A-485 inhibition): ~7 min; Brd4 signal exponential fit τ ([3]; inhibition with 1 μM A-485 (FIG. 16J legend)): 8 ± 1 s; Brd4 cluster shrinking time ([3]; upon A-485 inhibition): 8 min; time until nascent Pou5f1 transcription shuts down ([4]; 1 μM A-485): ≤ 20 min; MCP decay time upon p300/CBP HAT inhibition ([4]; Pou5f1, mESCs, 1 μM A-485, mean±S.D., n=17): 635 s and 635 ± 350 s; transcription shutdown time-scale ([4]; Pou5f1, upon A-485 inhibition): 10.5 min; response of individual Pou5f1 transcription sites at intermediate inhibitor concentration ([4]; intermediate [A-485] or [JQ1]): all-or-none responses
